The record followed here is patent US20230322761A1, “DEGRADATION OF BRUTON'S TYROSINE KINASE (BTK) BY CONJUGATION OF BTK INHIBITORS WITH E3 LIGASE LIGAND AND METHODS OF USE” (BEIGENE, LTD., priority 2020, published 2023).

The test has as its target T1, BTK (Homo sapiens, UniProt Q06187).
T1 construct: endogenous in cells; host or cells: TMD-8 cells
Kind of test: BTK degradation in TMD-8 cells, HTRF assay after 6 h treatment. It is filed as cell-based. The note with it: IC50 (DC50) of BTK degradation. The procedure, abridged: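 Remaining BTK was quantified by HTRF in lysates of TMD-8 cells after 6 h exposure to an 8-point, 6-fold compound series (500× stocks in DMSO starting at 1 mM; 0.2% DMSO). Lysis 30 min, antibodies overnight at room temperature, ratio read at 665/620 nm; DC50 fitted with a four-parameter logistic equation.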
Background: Time-resolved FRET reads energy transfer from a long-lived donor to a nearby acceptor.

T1 sequence (Q06187 whole entry): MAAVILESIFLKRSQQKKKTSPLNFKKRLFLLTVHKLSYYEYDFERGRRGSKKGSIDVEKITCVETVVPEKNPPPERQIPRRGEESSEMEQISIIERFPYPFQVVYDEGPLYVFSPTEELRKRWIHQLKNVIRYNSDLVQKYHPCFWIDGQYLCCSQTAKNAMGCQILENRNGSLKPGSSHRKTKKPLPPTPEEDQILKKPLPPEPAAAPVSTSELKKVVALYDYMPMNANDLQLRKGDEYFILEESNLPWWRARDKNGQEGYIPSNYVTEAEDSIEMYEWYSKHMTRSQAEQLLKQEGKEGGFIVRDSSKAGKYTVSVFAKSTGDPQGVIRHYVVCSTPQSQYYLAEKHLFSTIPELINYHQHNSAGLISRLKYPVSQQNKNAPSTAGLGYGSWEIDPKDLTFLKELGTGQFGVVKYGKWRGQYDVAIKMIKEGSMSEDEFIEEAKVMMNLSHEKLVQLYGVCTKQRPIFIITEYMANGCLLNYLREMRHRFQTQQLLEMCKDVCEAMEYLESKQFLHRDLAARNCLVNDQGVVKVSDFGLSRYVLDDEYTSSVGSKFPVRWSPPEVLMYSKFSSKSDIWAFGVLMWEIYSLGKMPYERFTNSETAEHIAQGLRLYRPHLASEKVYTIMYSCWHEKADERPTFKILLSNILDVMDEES

Take `Cc1cc(-c2n[nH]c3ncc(-c4ccc(N5CCN(CCc6ccc(OC7CCC(=O)NC7=O)cc6)CC5)cc4)cc23)ccc1[C@@H](C)NC(=O)c1noc(C(C)(C)C)n1` (stereo partly drawn) [Example 123, 5-(tert-butyl)-N-((1R)-1-(4-(5-(4-(4-(4-((2,6-dioxopiperidin-3-yl)oxy)phenethyl)piperazin-1-yl)phenyl)-1H-pyrazolo[3,4-b]pyridin-3-yl)-2-methylphenyl)ethyl)-1,2,4-oxadiazole-3-carboxamide]: half-maximal degradation (DC50) was put at 14.2 nM. This lies in the double-digit nanomolar range.

In the case of `Cc1cc(-c2n[nH]c3ncc(-c4ccc(N5CCN(CC6CCN(c7ccc(N8CCC(=O)NC8=O)cn7)CC6)CC5)cc4)cc23)ccc1[C@@H](C)NC(=O)c1noc(C(C)(C)C)n1` [Example 124, (R)-5-(tert-butyl)-N-(1-(4-(5-(4-(4-((1-(5-(2,4-dioxotetrahydropyrimidin-1(2H)-yl)pyridin-2-yl)piperidin-4-yl)methyl)piperazin-1-yl)phenyl)-1H-pyrazolo[3,4-b]pyridin-3-yl)-2-methylphenyl)ethyl)-1,2,4-oxadiazole-3-carboxamide], it took 1.42 nM to reach half-maximal degradation (DC50). Against the preceding molecule, the DC50 is about 10-fold lower.

Regarding `Cc1cc(-c2n[nH]c3ncc(-c4ccc(N5CCN(CCc6ccc(C7CCC(=O)NC7=O)cc6)CC5)cc4)cc23)ccc1[C@@H](C)NC(=O)c1cn(C(C)(C)C)nn1` (stereo partly drawn) [Example 125, 1-(tert-butyl)-N-((1R)-1-(4-(5-(4-(4-(4-(2,6-dioxopiperidin-3-yl)phenethyl)piperazin-1-yl)phenyl)-1H-pyrazolo[3,4-b]pyridin-3-yl)-2-methylphenyl)ethyl)-1H-1,2,3-triazole-4-carboxamide], the DC50 (usually the concentration at which degradation of the target reaches its halfway point) stood at 15.2 nM.

For `Cc1cc(-c2n[nH]c3ncc(-c4ccc(N5CC6CC5CN6CC5CCN(c6ccc(N7CCC(=O)NC7=O)cc6)CC5)cn4)cc23)ccc1[C@@H](C)NC(=O)c1noc(C(C)(C)C)n1` (stereo partly drawn) [Example 127, 5-(tert-butyl)-N-((1R)-1-(4-(5-(5-(5-((1-(4-(2,4-dioxotetrahydropyrimidin-1(2H)-yl)phenyl)piperidin-4-yl)methyl)-2,5-diazabicyclo[2.2.1]heptan-2-yl)pyridin-2-yl)-1H-pyrazolo[3,4-b]pyridin-3-yl)-2-methylphenyl)ethyl)-1,2,4-oxadiazole-3-carboxamide], it took 6.79 nM to reach half-maximal degradation (DC50).

`Cc1cc(-c2n[nH]c3ncc(-c4ccc(CCN5CCN(c6ccc(N7CCC(=O)NC7=O)cc6)CC5)cc4)cc23)ccc1[C@@H](C)NC(=O)c1noc(C(C)(C)C)n1` [Example 128, (R)-5-(tert-butyl)-N-(1-(4-(5-(4-(2-(4-(4-(2,4-dioxotetrahydropyrimidin-1(2H)-yl)phenyl)piperazin-1-yl)ethyl)phenyl)-1H-pyrazolo[3,4-b]pyridin-3-yl)-2-methylphenyl)ethyl)-1,2,4-oxadiazole-3-carboxamide]: the DC50 turned out to be 5.84 nM.

In turn, `Cc1cc(-c2n[nH]c3ncc(-c4ccc(N5CCN(CCc6ccc(N7CCC(=O)NC7=O)cc6)CC5)cc4)cc23)ccc1[C@@H](C)NC(=O)c1noc(C(C)(C)C)n1` [Example 129, (R)-5-(tert-butyl)-N-(1-(4-(5-(4-(4-(4-(2,4-dioxotetrahydropyrimidin-1(2H)-yl)phenethyl)piperazin-1-yl)phenyl)-1H-pyrazolo[3,4-b]pyridin-3-yl)-2-methylphenyl)ethyl)-1,2,4-oxadiazole-3-carboxamide] had a DC50 of 3.73 nM.

As for `COc1cc(OCCCN2CCN(c3ccc(-c4cnc5[nH]nc(-c6ccc([C@@H](C)NC(=O)c7noc(C(C)(C)C)n7)c(C)c6)c5c4)cc3)CC2)ccc1NC1CCC(=O)NC1=O` (stereo partly drawn) [Example 130, 5-(tert-butyl)-N-((1R)-1-(4-(5-(4-(4-(3-(4-((2,6-dioxopiperidin-3-yl)amino)-3-methoxyphenoxy)propyl)piperazin-1-yl)phenyl)-1H-pyrazolo[3,4-b]pyridin-3-yl)-2-methylphenyl)ethyl)-1,2,4-oxadiazole-3-carboxamide], the DC50 was 5.28 nM.

`Cc1cc(-c2n[nH]c3ncc(-c4ccc(N5CCN(CCc6ccc(NC7CCC(=O)NC7=O)cc6)CC5)cc4)cc23)ccc1[C@@H](C)NC(=O)c1noc(C(C)(C)C)n1` (stereo partly drawn) [Example 131, 5-(tert-butyl)-N-((1R)-1-(4-(5-(4-(4-(4-((2,6-dioxopiperidin-3-yl)amino)phenethyl)piperazin-1-yl)phenyl)-1H-pyrazolo[3,4-b]pyridin-3-yl)-2-methylphenyl)ethyl)-1,2,4-oxadiazole-3-carboxamide]: the DC50 came to 5.9 nM. The DC50 values of the last two molecules are within 1.5-fold of each other.

Consider `Cc1cc(-c2n[nH]c3ncc(-c4ccc(N5CC6CC5CN6CCc5ccc(N6CCC(=O)NC6=O)cc5)cn4)cc23)ccc1[C@@H](C)NC(=O)c1noc(C(C)(C)C)n1` (stereo partly drawn) [Example 132, 5-(tert-butyl)-N-((1R)-1-(4-(5-(5-(5-(4-(2,4-dioxotetrahydropyrimidin-1(2H)-yl)phenethyl)-2,5-diazabicyclo[2.2.1]heptan-2-yl)pyridin-2-yl)-1H-pyrazolo[3,4-b]pyridin-3-yl)-2-methylphenyl)ethyl)-1,2,4-oxadiazole-3-carboxamide], for which the DC50 is above 2000 nM.

`Cc1cc(-c2n[nH]c3ncc(-c4ccc(N5CC6CC5CN6CCc5ccc(C6CCC(=O)NC6=O)cc5)cn4)cc23)ccc1[C@@H](C)NC(=O)c1noc(C(C)(C)C)n1` (stereo partly drawn) [Example 133, 5-(tert-butyl)-N-((1R)-1-(4-(5-(5-(5-(4-(2,6-dioxopiperidin-3-yl)phenethyl)-2,5-diazabicyclo[2.2.1]heptan-2-yl)pyridin-2-yl)-1H-pyrazolo[3,4-b]pyridin-3-yl)-2-methylphenyl)ethyl)-1,2,4-oxadiazole-3-carboxamide] registered a DC50 of 1.96 nM.

For `Cc1cc(-c2n[nH]c3ncc(-c4ccc(N5CCN(CC6CCN(c7ccc(N8CCC(=O)NC8=O)cc7F)CC6)CC5)cc4)cc23)ccc1[C@@H](C)NC(=O)c1noc(C(C)(C)C)n1` [Example 134, (R)-5-(tert-butyl)-N-(1-(4-(5-(4-(4-((1-(4-(2,4-dioxotetrahydropyrimidin-1(2H)-yl)-2-fluorophenyl)piperidin-4-yl)methyl)piperazin-1-yl)phenyl)-1H-pyrazolo[3,4-b]pyridin-3-yl)-2-methylphenyl)ethyl)-1,2,4-oxadiazole-3-carboxamide], the DC50 came out at 9.96 nM.

Consider `Cc1cc(-c2n[nH]c3ncc(-c4ccc(N5CCN(CC6CCN(c7ccc(N8CCC(=O)NC8=O)cc7C)CC6)CC5)cc4)cc23)ccc1[C@@H](C)NC(=O)c1noc(C(C)(C)C)n1` [Example 135, (R)-5-(tert-butyl)-N-(1-(4-(5-(4-(4-((1-(4-(2,4-dioxotetrahydropyrimidin-1(2H)-yl)-2-methylphenyl)piperidin-4-yl)methyl)piperazin-1-yl)phenyl)-1H-pyrazolo[3,4-b]pyridin-3-yl)-2-methylphenyl)ethyl)-1,2,4-oxadiazole-3-carboxamide], for which half-maximal degradation (DC50) was put at 12.7 nM.

In turn, `Cc1cc(-c2n[nH]c3ncc(-c4ccc(N5CCN(CCC6CCN(c7ccc(C8CCC(=O)NC8=O)c(C)n7)CC6)CC5)cc4)cc23)ccc1[C@@H](C)NC(=O)c1noc(C(C)(C)C)n1` (stereo partly drawn) [Example 136, 5-(tert-butyl)-N-((1R)-1-(4-(5-(4-(4-(2-(1-(5-(2,6-dioxopiperidin-3-yl)-6-methylpyridin-2-yl)piperidin-4-yl)ethyl)piperazin-1-yl)phenyl)-1H-pyrazolo[3,4-b]pyridin-3-yl)-2-methylphenyl)ethyl)-1,2,4-oxadiazole-3-carboxamide] had a DC50 of 14.9 nM.

With `COc1cc(CCN2CCN(c3ccc(-c4cnc5[nH]nc(-c6ccc([C@@H](C)NC(=O)c7noc(C(C)(C)C)n7)c(C)c6)c5c4)cc3)CC2)ccc1C1CCC(=O)NC1=O` (stereo partly drawn) [Example 137, 5-(tert-butyl)-N-((1R)-1-(4-(5-(4-(4-(4-(2,6-dioxopiperidin-3-yl)-3-methoxyphenethyl)piperazin-1-yl)phenyl)-1H-pyrazolo[3,4-b]pyridin-3-yl)-2-methylphenyl)ethyl)-1,2,4-oxadiazole-3-carboxamide], the DC50 came out at 5.23 nM.

`Cc1cc(-c2n[nH]c3ncc(-c4ccc(N5CCN(CC6CCN(c7cccc(N8CCC(=O)NC8=O)c7)CC6)CC5)cc4)cc23)ccc1[C@@H](C)NC(=O)c1noc(C(C)(C)C)n1` [Example 138, (R)-5-(tert-butyl)-N-(1-(4-(5-(4-(4-((1-(3-(2,4-dioxotetrahydropyrimidin-1(2H)-yl)phenyl)piperidin-4-yl)methyl)piperazin-1-yl)phenyl)-1H-pyrazolo[3,4-b]pyridin-3-yl)-2-methylphenyl)ethyl)-1,2,4-oxadiazole-3-carboxamide] registered a DC50 of 8.6 nM.

In the case of `Cc1cc(-c2n[nH]c3ncc(-c4ccc(N5CCN(CCc6ccc([C@@H]7CCC(=O)NC7=O)cn6)CC5)cc4)cc23)ccc1[C@@H](C)NC(=O)c1noc(C(C)(C)C)n1` [Example 139, 5-(tert-butyl)-N—((R)-1-(4-(5-(4-(4-(2-(5-((S)-2,6-dioxopiperidin-3-yl)pyridin-2-yl)ethyl)piperazin-1-yl)phenyl)-1H-pyrazolo[3,4-b]pyridin-3-yl)-2-methylphenyl)ethyl)-1,2,4-oxadiazole-3-carboxamide], the DC50 is 1.03 nM.

`Cc1cc(-c2n[nH]c3ncc(-c4ccc(N5CCN(CCc6ccc([C@H]7CCC(=O)NC7=O)cn6)CC5)cc4)cc23)ccc1[C@@H](C)NC(=O)c1noc(C(C)(C)C)n1` [Example 140, 5-(tert-butyl)-N—((R)-1-(4-(5-(4-(4-(2-(5-((R)-2,6-dioxopiperidin-3-yl)pyridin-2-yl)ethyl)piperazin-1-yl)phenyl)-1H-pyrazolo[3,4-b]pyridin-3-yl)-2-methylphenyl)ethyl)-1,2,4-oxadiazole-3-carboxamide] came in with a DC50 of 1.11 nM.

Consider `Cc1cc(CCN2CCN(c3ccc(-c4cnc5[nH]nc(-c6ccc([C@@H](C)NC(=O)c7noc(C(C)(C)C)n7)c(C)c6)c5c4)cc3)CC2)ncc1C1CCC(=O)NC1=O` (stereo partly drawn) [Example 141, 5-(tert-butyl)-N-((1R)-1-(4-(5-(4-(4-(2-(5-(2,6-dioxopiperidin-3-yl)-4-methylpyridin-2-yl)ethyl)piperazin-1-yl)phenyl)-1H-pyrazolo[3,4-b]pyridin-3-yl)-2-methylphenyl)ethyl)-1,2,4-oxadiazole-3-carboxamide], for which half-maximal degradation (DC50) was put at 3.27 nM.
